Experimental data published in patent US20080107719A1, “Transdermal drug delivery system” (priority 2006, published 2008).
Converted amounts (≈) assume the structure as drawn. Like-named read-outs stand apart in the source and are kept apart here.

Legend:
Pka determination = type: physicochemical
Solubility in PG = type: physicochemical; conditions: organic solvent or mixture
[1] = Solubility in various PH medium; type: physicochemical; conditions: media of various pH, aqueous buffer
[2] = Half life (t1/2) in acidic and basic PH conditions; type: physicochemical; conditions: buffer
[3] = Stability in aqueous (PH1 and 14) tested by 3% hydrogen peroxide; type: physicochemical
[4] = Hygroscopicity (moisture sorption); type: physicochemical
rat [5] = conditions: in vivo; cited from earlier work
rat [6] = conditions: cited from earlier work

Compound: Cc1cccc(C(C)c2c[nH]c(=S)[nH]2)c1C (stereo not drawn) [AGN 203818]
- pKa (Pka determination): 11.3
- solubility (Solubility in PG): > 5100 µg/mL
- solubility ([1]; in PH1-11, read-out: Solubility (μg/ml) in various PH medium): 19.3 to 27.5 µg/mL (≈ 83.1 to 118 µM)
- solubility (Solubility in water; water): 24.5 µg/mL (≈ 105 µM)
- half-life ([2]; pH 1, PH1, read-out: t1/2 (days) PH1 (converted)): 51 days
- half-life ([2]; pH 11, PH11, read-out: t1/2 (days) PH11 (converted)): 57 days
- logP (Log P (Octanol/water); octanol/water): 2.9 to 3.12

Compound: CC12CC3CC(C)(C1)CC(N)(C3)C2.Cl [Memantine HCl]
- Stability in aqueous (PH1 and 14) tested by 3% hydrogen peroxide ([3]; PH1 and 14, 3% hydrogen peroxide): Stable
- stability in both acidic and basic pH conditions ([3]; acidic and basic pH): high stability
- pKa (Pka determination): 10.5
- solubility ([1]; in PH 2-8, read-out: Solubility in various PH medium): > 1200 µg/mL
- PH of 1% aqueous solution (Solubility in water; 1% aqueous solution): (PH 5.5-6)
- solubility at 24 hr (Solubility in water; water): 45000 µg/mL
- Log P (Octanol/water) (Log P (Octanol/water)): 3.28
- Hygroscopicity [4]: Slightly hygroscopic
- moisture sorption ([4]; at 5-95% RH): (<1.1% moisture

Compound: CN1CCCC1=O [N-methylpyrrolidone]
- LD50 (skin) (rat [5]): 7 g/KG bodyweight

Compound: Polysorbate80
- LD50 (Rat-Oral) (rat [6]): 34.5 ml/kg bodyweight
